Test results reported in patent US7115624B1, “Method of inhibiting protein tyrosine phosphatase 1B and/or T-cell protein tyrosine phosphatase 4 and/or other PTPases with an Asp residue at position 48” (Novo Nordisk A/S, priority 1999, dated 2006).
Like-named read-outs stand apart in the source and are kept apart here.

Tests used:
PTPα = target: T1, PTPα (Homo sapiens, UniProt P18433); test: PTPase inhibition, p-nitrophenyl phosphate substrate, Ki; assay type: biochemical
T1 construct: PTPα D1

PTPε = target: T2, PTPε (Homo sapiens, UniProt P23469); test: as above; assay type: biochemical
T2 construct: PTPε D1
T2 sequence (P23469 135-394 limits assumed): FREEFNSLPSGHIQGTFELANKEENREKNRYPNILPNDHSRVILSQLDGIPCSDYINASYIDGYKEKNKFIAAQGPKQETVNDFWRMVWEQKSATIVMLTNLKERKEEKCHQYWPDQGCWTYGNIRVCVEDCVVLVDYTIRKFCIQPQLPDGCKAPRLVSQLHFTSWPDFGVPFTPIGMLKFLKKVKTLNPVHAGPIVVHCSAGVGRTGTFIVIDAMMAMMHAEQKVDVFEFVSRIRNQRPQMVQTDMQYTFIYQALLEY
Description: (§1) The assay conditions are as follows. Appropriate concentrations of the compounds of the invention (e.g., 0.1 to 100 μM) are added to the reaction mixtures containing different concentrations of the substrate, p-nitrophenyl phosphate (range: 0.16 to 10 mM—final assay concentration). The buffer used was 50 mM HEPES pH 7.0, 100 mM sodium chloride, 0.1% (w/v) bovine serum albumin, 5 mM glutathione, and 1 mM EDTA. The reaction was started by addition of the enzyme and carried out in microtiter plates at 25° C. for 60 minutes. The reactions are stopped by addition of NaOH. […] The data are analyzed using nonlinear regression fit to classical Michaelis Menten enzyme kinetic models. Inhibition is expressed as Ki values in μM.

CD45 = target: T3, CD45 (Homo sapiens, UniProt P08575); test: as above; assay type: biochemical; settings: read-out: Ki values, CD45 D1D2
T3 sequence (P08575 599-1306 limits assumed): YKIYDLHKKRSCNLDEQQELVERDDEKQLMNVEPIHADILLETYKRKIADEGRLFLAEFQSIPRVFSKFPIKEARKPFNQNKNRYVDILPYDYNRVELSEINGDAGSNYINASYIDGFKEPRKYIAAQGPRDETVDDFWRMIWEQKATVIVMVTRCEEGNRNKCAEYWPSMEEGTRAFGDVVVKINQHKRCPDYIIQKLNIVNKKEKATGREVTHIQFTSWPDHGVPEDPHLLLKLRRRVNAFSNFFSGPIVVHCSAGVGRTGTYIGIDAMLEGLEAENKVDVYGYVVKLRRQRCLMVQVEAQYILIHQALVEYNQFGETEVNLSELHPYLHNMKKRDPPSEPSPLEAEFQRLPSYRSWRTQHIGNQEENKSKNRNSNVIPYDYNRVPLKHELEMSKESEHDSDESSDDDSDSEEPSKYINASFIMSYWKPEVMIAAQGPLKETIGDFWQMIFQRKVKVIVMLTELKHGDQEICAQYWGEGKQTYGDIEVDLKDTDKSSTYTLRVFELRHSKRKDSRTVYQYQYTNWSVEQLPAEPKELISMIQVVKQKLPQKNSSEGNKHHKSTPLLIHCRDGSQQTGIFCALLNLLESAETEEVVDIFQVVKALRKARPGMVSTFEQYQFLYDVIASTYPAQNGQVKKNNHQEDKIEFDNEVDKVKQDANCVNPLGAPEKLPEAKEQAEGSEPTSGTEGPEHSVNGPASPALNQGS
Description: as §1

PTPβ = PTPβ (Homo sapiens, UniProt P23467); test: as above; assay type: biochemical
PTPβ, sequence (P23467 1703-1963 limits assumed): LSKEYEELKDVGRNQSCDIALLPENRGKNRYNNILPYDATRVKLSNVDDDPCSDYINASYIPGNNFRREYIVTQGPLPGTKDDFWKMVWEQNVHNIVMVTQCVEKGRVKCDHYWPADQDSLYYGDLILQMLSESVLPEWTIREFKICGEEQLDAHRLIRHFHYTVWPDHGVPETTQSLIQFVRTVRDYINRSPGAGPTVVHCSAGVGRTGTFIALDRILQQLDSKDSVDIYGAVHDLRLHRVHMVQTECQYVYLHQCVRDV
Description: as §1

SHP-1 = SHP-1 (Homo sapiens, UniProt P29350); test: biochemical
SHP-1, sequence (P29350 whole entry): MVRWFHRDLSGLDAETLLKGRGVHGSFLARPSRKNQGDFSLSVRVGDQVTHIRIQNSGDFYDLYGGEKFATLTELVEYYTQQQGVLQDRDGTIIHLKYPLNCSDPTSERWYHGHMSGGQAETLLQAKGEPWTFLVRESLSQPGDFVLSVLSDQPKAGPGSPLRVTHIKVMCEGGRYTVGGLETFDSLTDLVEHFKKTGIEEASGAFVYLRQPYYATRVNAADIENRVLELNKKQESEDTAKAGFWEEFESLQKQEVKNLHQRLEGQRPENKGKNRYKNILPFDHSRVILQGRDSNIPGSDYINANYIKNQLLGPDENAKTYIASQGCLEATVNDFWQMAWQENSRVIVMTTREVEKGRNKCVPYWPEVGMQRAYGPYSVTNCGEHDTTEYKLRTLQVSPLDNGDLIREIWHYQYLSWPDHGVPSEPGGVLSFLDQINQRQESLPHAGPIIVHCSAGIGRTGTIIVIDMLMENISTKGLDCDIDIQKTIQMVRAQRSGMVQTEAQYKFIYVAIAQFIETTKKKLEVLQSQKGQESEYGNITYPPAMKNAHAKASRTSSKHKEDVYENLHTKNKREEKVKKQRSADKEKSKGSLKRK

LAR = target: T4, LAR (Homo sapiens, UniProt P10586); test: PTPase inhibition, p-nitrophenyl phosphate substrate, Ki; assay type: biochemical; settings: pH 5.5; D1D2; read-out: Ki values, LAR D1D2
T4 sequence (P10586 1285-1907 limits assumed): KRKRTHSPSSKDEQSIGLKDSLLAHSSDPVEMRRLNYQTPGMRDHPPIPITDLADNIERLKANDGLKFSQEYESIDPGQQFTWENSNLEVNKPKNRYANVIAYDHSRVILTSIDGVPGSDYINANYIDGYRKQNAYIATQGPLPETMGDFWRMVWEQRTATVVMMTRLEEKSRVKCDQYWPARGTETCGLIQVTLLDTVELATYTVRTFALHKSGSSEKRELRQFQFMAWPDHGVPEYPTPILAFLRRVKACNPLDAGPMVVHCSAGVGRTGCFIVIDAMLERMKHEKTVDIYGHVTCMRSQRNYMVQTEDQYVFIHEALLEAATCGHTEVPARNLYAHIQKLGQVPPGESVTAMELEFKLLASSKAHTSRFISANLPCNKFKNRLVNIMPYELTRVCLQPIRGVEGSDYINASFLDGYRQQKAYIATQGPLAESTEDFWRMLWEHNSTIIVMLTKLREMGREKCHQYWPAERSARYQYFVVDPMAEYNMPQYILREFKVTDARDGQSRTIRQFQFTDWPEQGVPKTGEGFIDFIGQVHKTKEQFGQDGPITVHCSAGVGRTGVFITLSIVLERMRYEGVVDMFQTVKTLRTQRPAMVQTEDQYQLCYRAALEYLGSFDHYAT
Description: The compounds are evaluated for biological activity with a truncated form of PTP1B (corresponding to the first 321 amino acids), which was expressed in E. coli and purified to apparent homogeneity using published procedures well-known to those skilled in the art. The enzyme reactions are carried out using standard conditions essentially as described by Burke et al. (Biochemistry 35; 15989–15996 (1996)) incorporated by reference. […] Appropriate concentrations of the compounds of the invention (e.g., 0.1 to 100 μM) are added to the reaction mixtures containing different concentrations of the substrate, p-nitrophenyl phosphate (range: 0.16 to 10 mM—final assay concentration). The buffer used was 50 mM HEPES pH 7.0, 100 mM sodium chloride, 0.1% (w/v) bovine serum albumin, 5 mM glutathione, and 1 mM EDTA. The reaction was started by addition of the enzyme and carried out in microtiter plates at 25° C. for 60 minutes. The reactions are stopped by addition of NaOH. The enzyme activity was determined by measurement of the absorbance at 405 nm with appropriate corrections for absorbance at 405 nm of the compounds and p-nitrophenyl phosphate. The data are analyzed using nonlinear regression fit to classical Michaelis Menten enzyme kinetic models. Inhibition is expressed as Ki values in μM.

PTP1B = target: T5, PTP1B (Homo sapiens, UniProt P18031); test: as above; assay type: biochemical
T5 sequence (P18031 1-321): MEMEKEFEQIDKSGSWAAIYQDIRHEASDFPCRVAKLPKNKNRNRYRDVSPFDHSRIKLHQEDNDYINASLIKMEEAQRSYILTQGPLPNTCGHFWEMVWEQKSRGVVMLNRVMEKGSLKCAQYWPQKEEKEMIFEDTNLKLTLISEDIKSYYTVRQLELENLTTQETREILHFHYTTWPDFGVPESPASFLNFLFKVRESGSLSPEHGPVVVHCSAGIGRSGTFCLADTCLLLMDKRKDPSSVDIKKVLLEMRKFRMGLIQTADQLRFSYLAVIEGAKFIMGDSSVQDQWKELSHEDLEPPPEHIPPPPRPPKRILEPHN
Description: as §1

[1] = pKa of the tetrahydropyridine ring; assay type: physicochemical; settings: positively charged tetrahydropyridine ring
[2] = pH 5.5, D1, read-out: Ki values, PTPα D1
[3] = pH 5.5, D1, read-out: Ki values, PTPε D1
[4] = pH 5.5, read-out: Ki values, PTPβ
[5] = pH 5.5, read-out: Ki values, PTP1B
[6] = pH 7, D1 (Table 3), read-out: Ki values, PTPα D1
[7] = pH 7, D1 (Table 3), read-out: Ki values, PTPε D1
[8] = pH 7 (Table 3), read-out: Ki values, PTPβ
[9] = pH 7 (Table 6), read-out: Ki, PTP α residue 48 Asn
[10] = pH 7 (Table 6), read-out: Ki, PTP ε residue 48 Asn
[11] = pH 7 (Table 6), read-out: Ki, PTP β residue 48 Asn
[12] = pH 7 (Table 6), read-out: Ki, PTP1B residue 48 Asp

T1 sequence (P18433 241-501 limits assumed): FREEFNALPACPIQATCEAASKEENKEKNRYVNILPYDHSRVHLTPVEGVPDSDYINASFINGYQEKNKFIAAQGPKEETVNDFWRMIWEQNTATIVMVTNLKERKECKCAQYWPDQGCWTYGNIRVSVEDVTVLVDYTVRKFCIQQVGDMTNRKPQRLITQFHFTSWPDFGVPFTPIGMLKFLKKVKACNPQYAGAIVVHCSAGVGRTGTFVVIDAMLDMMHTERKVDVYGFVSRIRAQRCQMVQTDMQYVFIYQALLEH

SMILES	Ki (PTPα; [2]) [µM]	Ki (PTPε; [3]) [µM]	Ki (CD45; pH 5.5, D1D2) [µM]	Ki (PTPβ; [4]) [µM]	Ki (SHP-1) [µM]	Ki (LAR) [µM]	Ki (PTPβ; [11]) [µM]	Ki (PTP1B; [12]) [µM]	other results
O=C(O)C(=O)Nc1sc2c(c1C(=O)O)CCCC2 [Example 2-OBTA]	300	45	40	14	120	400	–	–	–
O=C(O)C(=O)Nc1sccc1C(=O)O [Example 2-OTA, 2-(oxalyl-amino)-thiophene-3-carboxylic acid]	1700	590	70	18	60	> 2000	–	–	Ki (PTP1B; [5]): 62 µM
O=C(O)C(=O)Nc1sc2c(c1C(=O)O)CCOC2 [Example 2-OTPA, 2-(Oxalyl-amino)-4,7-dihydro-thieno[2,3-c]pyran-3-carboxylic acid]	270	–	–	–	–	–	–	–	Ki (PTPα; [6]): 1100 µM
O=C(O)C(=O)Nc1sc2c(c1C(=O)O)CCNC2 [Example 2-OTPyA, 2-(Oxalyl-amino)-4,5,6,7-tetrahydro-thieno[2,3-c]pyridine-3-carboxylic acid]	> 2000	600	110	150	900	> 2000	–	–	pKa [1]: > 10; Ki (PTP1B; [5]): 0.3 µM
O=C(O)C(=O)Nc1ccsc1C(=O)O [Example 3-OTA, 3-(oxalyl-amino)-thiophene-2-carboxylic acid]	500	350	250	160	> 2000	> 2000	–	–	Ki (PTP1B; [5]): 61 µM
O=C(O)C(=O)Nc1sc2c(c1C(=O)O)CC(CN1C(=O)c3cccc(O)c3C1=O)OC2 (centres unmarked) [Example 4, 5-(4-Hydroxy-1,3-dioxo-1,3-dihydro-isoindol-2-ylmethyl)-2-(oxalyl-amino)-4,7-dihydro-5H-thieno[2,3-c]pyran-3-carboxylic acid]	–	–	–	–	–	–	–	–	Ki (PTPα; [6]): 93 µM; Ki (PTPε; [7]): 11 µM; Ki (CD45; pH 7, D1D2 (Table 3)): 130 µM; Ki (PTPβ; [8]): 1.1 µM; Ki (PTP1B; pH 7 (Table 3), read-out: Ki values, PTP1B): 1.9 µM
COc1ccc2c(c1)C(=O)N(CC1OCCc3c1sc(NC(=O)C(=O)O)c3C(=O)O)C2=O (centres unmarked) [Example 26, 7-(5-Methoxy-1,3-dioxo-1,3-dihydro-isoindol-2-ylmethyl)-2-(oxalyl-amino)-4,7-dihydro-5H-thieno[2,3-c]pyran-3-carboxylic-acid]	–	–	–	–	–	–	–	–	Ki (PTPα; [6]): 620 µM; Ki (PTPε; [7]): 330 µM; Ki (CD45; pH 7, D1D2 (Table 3)): 380 µM; Ki (PTPβ; [8]): 8.9 µM
O=C(O)C(=O)Nc1ccccc1C(=O)O [OBA, 2-(oxalyl-amino)-benzoic acid]	700	125	160	32	530	> 2000	–	–	–

Continued, in another order:

Ki (PTPα; [2]) [µM]	Ki (PTPε; [3]) [µM]	Ki (CD45; pH 5.5, D1D2) [µM]	Ki (PTPβ; [4]) [µM]	Ki (SHP-1) [µM]	Ki (LAR) [µM]	Ki (PTPβ; [11]) [µM]	Ki (PTP1B; [12]) [µM]	SMILES	other results
–	–	–	–	–	–	47	0.25	CCOC(=O)N1Cc2sc(NC(=O)C(=O)O)c(C(=O)O)c2CC1CN1C(=O)c2ccccc2C1=O (centres unmarked) [Example 48, 5-(1,3-Dioxo-1,3-dihydro-isoindol-2-ylmethyl)-2-(oxalyl-amino)-4,5,6,7-tetrahydro-thieno[2,3-c]pyridine-3,6-dicarboxylic acid 6-ethyl ester]	Ki (PTPα; [9]): 900 µM; Ki (PTPε; [10]): 380 µM
–	–	–	–	–	–	8.6	0.085	O=C(O)C(=O)Nc1sc2c(c1C(=O)O)CC(CN1C(=O)c3ccccc3C1=O)NC2 (centres unmarked) [Example 49, 5-(1,3-Dioxo-1,3-dihydro-isoindol-2-ylmethyl)-2-(oxalyl-amino)-4,5,6,7-tetrahydro-thieno[2,3-c]pyridine-3-carboxylic acid]	–
–	–	–	–	–	–	8	0.07	O=C(O)C(=O)Nc1sc2c(c1C(=O)O)C[C@@H](CN1C(=O)c3ccccc3C1=O)NC2 [Example 50, (L)-5-(1,3-Dioxo-1,3-dihydro-isoindol-2-ylmethyl)-2-(oxalyl-amino)-4,5,6,7-tetrahydro-thieno[2,3-c]pyridine-3-carboxylic acid]	Ki (PTPα; [9]): 1000 µM
–	–	–	–	–	–	107	1.2	O=C(O)C(=O)Nc1sc2c(c1C(=O)O)CC(CN1C(=O)c3cccc(O)c3C1=O)NC2 (centres unmarked) [Example 52, 5-(4-Hydroxy-1,3-dioxo-1,3-dihydro-isoindol-2-ylmethyl)-2-(oxalyl-amino)-4,5,6,7-tetrahydro-thieno[2,3-c]pyridine-3-carboxylic acid]	Ki (PTPα; [9]): > 400 µM; Ki (PTPε; [10]): > 500 µM; fold increase of affinity for PTP1B compared to 2-OTPyA (PTP1B): about 13 fold
